For 13 compounds, IC50 results are on record in patent US9676714B2, “Sulfonylindole derivatives and method for preparing the same” (Daewoong Pharmaceutical Co., Ltd., priority 2013, dated 2017).

Structures can show the parent of a compound that is named as a salt.

In this test the target is T1, proton pump (H+/K+-ATPase) (Sus scrofa, UniProt P19156).
T1 construct: Gastric vesicles were prepared from hog stomach via centrifugal separation; from tissue; host or cells: hog stomach (gastric vesicles, method of Rabon et al. 1988)
T1 sequence (P19156 whole entry): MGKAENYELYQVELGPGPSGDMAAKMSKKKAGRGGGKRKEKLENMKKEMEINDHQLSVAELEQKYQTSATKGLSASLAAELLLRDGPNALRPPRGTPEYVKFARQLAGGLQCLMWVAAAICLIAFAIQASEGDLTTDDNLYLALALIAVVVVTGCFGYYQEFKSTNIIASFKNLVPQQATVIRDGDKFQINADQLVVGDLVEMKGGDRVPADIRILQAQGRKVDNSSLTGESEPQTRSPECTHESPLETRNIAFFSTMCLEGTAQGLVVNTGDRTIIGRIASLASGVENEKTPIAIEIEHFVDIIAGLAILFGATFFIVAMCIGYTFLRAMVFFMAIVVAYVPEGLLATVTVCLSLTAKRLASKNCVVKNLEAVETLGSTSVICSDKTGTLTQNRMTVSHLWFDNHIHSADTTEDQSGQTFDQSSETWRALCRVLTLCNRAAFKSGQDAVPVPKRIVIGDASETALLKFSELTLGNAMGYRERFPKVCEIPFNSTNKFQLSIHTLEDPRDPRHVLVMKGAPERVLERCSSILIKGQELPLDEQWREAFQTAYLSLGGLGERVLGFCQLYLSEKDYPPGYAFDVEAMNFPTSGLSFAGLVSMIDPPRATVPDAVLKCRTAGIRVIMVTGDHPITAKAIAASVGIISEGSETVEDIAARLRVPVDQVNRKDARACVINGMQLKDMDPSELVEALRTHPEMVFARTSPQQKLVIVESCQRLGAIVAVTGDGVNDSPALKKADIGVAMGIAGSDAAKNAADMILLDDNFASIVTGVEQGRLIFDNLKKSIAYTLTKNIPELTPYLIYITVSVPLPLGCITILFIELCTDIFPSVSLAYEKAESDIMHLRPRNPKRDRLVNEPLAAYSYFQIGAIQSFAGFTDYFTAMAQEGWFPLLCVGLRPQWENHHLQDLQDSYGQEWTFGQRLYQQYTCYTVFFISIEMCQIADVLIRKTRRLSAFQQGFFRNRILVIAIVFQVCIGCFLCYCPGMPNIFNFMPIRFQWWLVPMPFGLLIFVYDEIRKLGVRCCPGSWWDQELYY
T1 sequence (P18434 whole entry partner): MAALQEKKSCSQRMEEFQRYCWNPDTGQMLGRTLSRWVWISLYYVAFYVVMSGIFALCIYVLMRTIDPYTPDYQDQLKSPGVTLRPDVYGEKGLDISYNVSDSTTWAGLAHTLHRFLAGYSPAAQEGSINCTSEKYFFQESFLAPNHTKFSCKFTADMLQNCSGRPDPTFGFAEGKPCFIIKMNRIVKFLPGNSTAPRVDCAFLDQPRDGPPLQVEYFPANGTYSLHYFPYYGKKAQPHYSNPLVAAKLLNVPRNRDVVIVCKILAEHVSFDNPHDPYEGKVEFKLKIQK
The experiment in a line: Measurement of inhibitory effects on proton pump (H+/K+-ATPase) activities. The format is biochemical. The settings on record: hog gastric vesicles, K+-specific H+/K+-ATPase activity, Tris-HCl buffer pH 7.4, 37° C. for 40 minutes, malachite green Pi readout. In outline:
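Hog gastric vesicles in 60 mmol/l Tris-HCl pH 7.4 with 0.5% DMSO were treated with compounds at room temperature; reaction was started with 10 μl of 10 mmol/l ATP stock. Released Pi was read at 570 nm, K+-specific activity taken as the ±K+ difference. IC50 from 4-parameter logistic fit.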

One may read the IC50 as the concentration that inhibits the measured activity by half. `CNCc1cn(S(=O)(=O)c2cccnc2)c2cc(Nc3ccnc(OC)c3Cl)ccc12` [Example 130, N-(3-chloro-2-methoxypyridin-4-yl)-3-((methylamino)methyl)-1-(pyridin-3-ylsulfonyl)-1H-indol-6-amine hydrochloride] had an IC50 of 20000 nM.

For `CNCc1cn(S(=O)(=O)c2cccnc2)c2cc(Nc3ccnc(OC)c3Br)ccc12` [Example 131, N-(3-bromo-2-methoxypyridin-4-yl)-3-((methylamino)methyl)-1-(pyridin-3-ylsulfonyl)-1H-indol-6-amine hydrochloride], half-maximal inhibition (IC50) was put at 780 nM.

In turn, `CNCc1cn(S(=O)(=O)c2cccnc2)c2cc(Nc3ccnc(Cl)c3Cl)ccc12` [Example 132, N-(2,3-dichloropyridin-4-yl)-3-((methylamino)methyl)-1-(pyridin-3-ylsulfonyl)-1H-indol-6-amine hydrochloride] registered an IC50 of 730 nM. In turn, `CNCc1cn(S(=O)(=O)c2cccnc2)c2cc(Nc3c(F)cnc(F)c3F)ccc12` [Example 134, 3-((methylamino)methyl)-1-(pyridin-3-ylsulfonyl)-N-(2,3,5-trifluoropyridin-4-yl)-1H-indol-6-amine hydrochloride] returned a 50% inhibitory concentration (IC50) of 2050 nM. Take `CNCc1cn(S(=O)(=O)c2cccnc2)c2cc(Nc3ccc4ncccc4c3)ccc12` [Example 135, N-3-((methylamino)methyl)-1-(pyridin-3-ylsulfonyl)-1H-indol-6-yl)quinolin-6-amine hydrochloride]: the IC50 stood at 3000 nM.

In turn, `CNCc1cn(S(=O)(=O)c2cccc(F)c2)c2cc(Nc3ccc(C)cc3F)ccc12` [Example 136, N-(2-fluoro-4-methylphenyl)-1-((3-fluorophenyl)sulfonyl)-3-((methylamino)methyl)-1H-indol-6-amine hydrochloride] registered an IC50 of 710 nM. In turn, `CNCc1cn(S(=O)(=O)c2cccc(F)c2)c2cc(Nc3ccc(C)cc3Cl)ccc12` [Example 137, N-(2-chloro-4-methylphenyl)-1-((3-fluorophenyl)sulfonyl)-3-((methylamino)methyl)-1H-indol-6-amine hydrochloride] had an IC50 of 60 nM. To `CNCc1cn(S(=O)(=O)c2cccc(F)c2)c2cc(Nc3ccc(OC(F)(F)F)cc3C)ccc12` [Example 140, 1-((3-fluorophenyl)sulfonyl)-N-(2-methyl-4-(trifluoromethoxy)phenyl)-3-((methylamino)methyl)-1H-indol-6-amine hydrochloride] belongs 190 nM; to `CNCc1cn(S(=O)(=O)c2cccc(Cl)c2)c2cc(Nc3ccc(C)cc3F)ccc12` [Example 146, 1-((3-chlorophenyl)sulfonyl)-N-(2-fluoro-4-methylphenyl)-3-((methylamino)methyl)-1H-indol-6-amine hydrochloride], 150 nM; to `CNCc1cn(S(=O)(=O)c2cccc(Cl)c2)c2cc(Nc3ccc(C)cc3Cl)ccc12` [Example 147, N-(2-chloro-4-methylphenyl)-1-((3-chlorophenyl)sulfonyl)-3-((methylamino)methyl)-1H-indol-6-amine hydrochloride], 90 nM.

The compound `CNCc1cn(S(=O)(=O)c2cccc(Cl)c2)c2cc(Nc3ccc(F)cc3Cl)ccc12` [Example 149, N-(2-chloro-4-fluorophenyl)-1-((3-chlorophenyl)sulfonyl)-3-((methylamino)methyl)-1H-indol-6-amine hydrochloride] came in with a 50% inhibitory concentration (IC50) of 10 nM.

Consider `CNCc1cn(S(=O)(=O)c2cccc(Cl)c2)c2cc(Nc3ccc(Cl)cc3F)ccc12` [Example 150, N-(4-chloro-2-fluorophenyl)-1-((3-chlorophenyl)sulfonyl)-3-((methylamino)methyl)-1H-indol-6-amine hydrochloride], for which inhibition was half-maximal at 570 nM (IC50). `CNCc1cn(S(=O)(=O)c2cccc(Cl)c2)c2cc(Nc3ccc(Cl)cc3C(F)(F)F)ccc12` [Example 151, N-(4-chloro-2-(trifluoromethyl)phenyl)-1-((3-chlorophenyl)sulfonyl)-3-((methylamino)methyl)-1H-indol-6-amine hydrochloride] had an IC50 of 510 nM.
